Read-outs that look alike come from different tables or passages of the source.
Columns and labels:
[1] = Oral (maternal and offspring feeding) or neonatal s.c. administration of monosodium glutamate to Wistar rats; assay type: in vivo
Protocol: The effects of oral administration of GLU were investigated in 32 pregnant rats and their offspring up to day 90 of life, in the animal facilities of the Department of Physiology, Medical School, Universidad Complutense, Madrid, Spain. The study was conducted in accordance with the principles and procedures outlined in the NIH Guide for the Care and Use of Laboratory Animals. Pregnant Wistar rats were kept under controlled conditions of light (12 h light/12 h darkness) and temperature (21+/−2C.°), and were fed with tap water and rat chow (Panlab, Barcelona, Spain) ad libitum.
At day 14 of pregnancy, the animals were divided into four groups (n=8), and either received no extra monosodium glutamate (MSG) (control, group 1), or 2.5 g MSG (group 2) or 5 g MSG per day (group 3), up to the end of the weaning period. 2.5 g, respectively 5 g MSG accounted for some 10%, respectively 20% of dry weight of the average daily food ration. After weaning and gender separation, MSG feeding was continued in the offspring at the same concentrations. A fourth group of animals received no MSG, but their offspring was injected with MSG 4 mg/g body weight s.c., at neonatal age as described earlier (Hermanussen, (1996) loc. cit.). Due to the existence of two gender groups a total of 8 experimental groups were obtained with n=6-9 for each group of females and males. All litter was weighed at weekly intervals, and the amount of food consumed was registered daily. Offspring was sacrificed half at day 30 and the rest at day 90 of life.
Half of the animals were killed by decapitation at day 30 and the other half at the end of the observation period at day 90. Anterior pituitaries were removed, and trunk blood was collected. Serum samples and anterior pituitaries after being weighted, were kept at −80° C., for hormonal determinations by specific radioimmunoassays (RIA). Pituitary homogenates were obtained by manual glass homogenizers, and processed in saline after thawing in the moment of the measurement.
Plasma GH levels and pituitary GH content were determined by RIA as previously described.^21 Pituitary homogenates were diluted 1:5000 for determination. Reagents were kindly provided by the National Institute of Diabetes, Digestive and Kidney Diseases (NIDDK). The standard used was rat GH RP2. The sensitivity of the curve was 2 ng/ml and the intraassay coefficient of variation was 5.7%. Plasma IGF I concentrations were measured using a commercially available rat RIA kit (DSL-2900, Diagnostic Systems Laboratories, INC). The sensitivity of the assay was 20 ng/ml, and the intraassay coefficients of variation for mean serum concentrations of 323, 772 and 1604 ng/ml were 5.9%, 6.1% and 3.8%, respectively.
Values are expressed as mean +/−SEM. […] To determine differences in final weight or hormonal levels a two-way ANOVA test was performed. Differences among groups were subjected to a post-hoc comparison by using Tukey HSD for unequal N test. Statistics were executed using Statistica program. The significance level was determined to be p<0.05.

[2] = Preliminary clinical trial of memantine in obese, otherwise healthy patients; assay type: in vivo, human
Protocol: The patients experienced an initial loss of body weight of 1 to 3 kg within a 7 day period. Further weight loss is observed during the course of administration over a longer period of time, see appended FIG. 6.
FIG. 6. Percent body weight decline in seven obese and one overweight subjects (6 females, 2 males) during a two month therapeutical trial with memantine (Axura®, Merz Pharmaceuticals GmbH), 5-10 mg in the morning, and 5-20 mg late in the afternoon (Patient […] initial body weight 126.6 kg, […] initial body weight 90.6 kg, Re initial body weight 93.5 kg, Br initial body weight 122.3 kg, Ku initial body weight 111.0 kg, Ho initial body weight 77.6 kg, Sk (male) initial body weight 148.6 kg, Le (male) initial body weight 109.6 kg).
The following preliminary and limited clinical trials have been carried out in the private practice of the inventor. The trials with memantine are carried out since Feb. 2, 2005, in eight obese, but otherwise healthy patients, 6 females, and 2 males (Table 1; FIG. 6).

[3] = doses 100 to 1400 mg; seven of 13 female patients; cited from earlier work
[4] = cited from earlier work
[5] = 5 g MSG per day, day 90 of life, p<0.01

Q: For `N[C@@H](CCC(=O)O)C(=O)[O-].[Na+]` [MSG, monosodium glutamate], which food uptake [1, 5] is on record?
A: almost twofold

Q: And the water uptake [1, 5]?
A: threefold

Q: And the “weight increments during weaning” value ([1]; MSG feeding to the mothers maintained during weaning, p<0.01)?
A: subnormal

Q: What about the appetite ([1]; MSG injected animals, compared to controls) of the same molecule?
A: did not show significantly increased appetite

Q: And the IGF-1 serum levels ([1]; compared with the GH results, day 30 and day 90 of life)?
A: Almost identical results

Q: What about the “serum GH levels” value ([1]; high MSG diet (5 g MSG per day), day 30 and day 90 of life, p<0.05) of the same molecule?
A: as low or even lower than those of MSG injected animals

Q: And the “birth weight of the offspring” value ([1]; maternal feeding with 2.5 g MSG per day, compared to controls)?
A: no birth weight modification

Q: What about the “birth weight of the offspring” value ([1]; maternal feeding with 5 g MSG per day, p<0.01) of the same molecule?
A: severe birth weight reduction

Q: What about the appetite ([1]; medium MSG diet (2.5 g MSG per day) and particularly high MSG diet (5 g MSG per day)) of the same molecule?
A: marked voracity

Q: What about the “serum GH levels” value ([1]; medium MSG diet (2.5 g MSG per day), day 30 of life, p<0.01) of the same molecule?
A: low

Q: And the “GH plasma levels of the offspring” value ([1]; neonatally injected with MSG 4 mg/g body weight s.c., day 30 and day 90 of life, p<0.05)?
A: low

Q: Which results are given for `CC12CC3CC(C)(C1)CC(N)(C3)C2` [memantine]?
A: late afternoon or evening binge-eating disorders (patient report) ([2]; already at the second day of treatment): complete disappeared; side effects ([2]; initial treatment period): Apart from short moments of mild dizziness at the first day, and mild constipation, there were no side effects; appetite (patient report) ([2]; obese patients on memantine): significant decrease in appetite; Weight (kg) after treatment ([2]; patient eight, 93.5 kg, BMI 32.6 before treatment, 56 days of treatment): 91.3 kg; Weight (kg) after treatment ([2]; patient five, 90.6 kg, BMI 33.3 before treatment, 49 days of treatment): 86.6 kg; Weight (kg) after treatment ([2]; patient four, 109.6 kg, BMI 31.7 before treatment, 54 days of treatment): 99.4 kg; Weight (kg) after treatment ([2]; patient one, 111.0 kg, BMI 38.6 before treatment, 56 days of treatment): 104.4 kg; Weight (kg) after treatment ([2]; patient seven, 77.6 kg, BMI 27.5 before treatment, 77 days of treatment): 71.4 kg; Weight (kg) after treatment ([2]; patient six, 126.6 kg, BMI 43.3 before treatment, 67 days of treatment): 111.3 kg; Weight (kg) after treatment ([2]; patient three, 122.3 kg, BMI 42.8 before treatment, 40 days of treatment): 117.5 kg; Weight (kg) after treatment ([2]; patient two, 148.6 kg, BMI 38.3 before treatment, 25 days of treatment): 144.8 kg

Q: With `CC1(C)O[C@@H]2[C@@H](CO[C@@]3(COS(N)(=O)=O)OC(C)(C)O[C@@H]23)O1` [topiramate] as the molecule, how does the weight loss [3] read?
A: > 5 kg

Q: And the weight loss ([4]; 64 mg/d, 6 months)?
A: 5.0%

Q: What about the weight loss ([4]; 96 mg, 6 months) of the same molecule?
A: 4.8%

Q: And the weight loss ([4]; 192 mg, 6 months)?
A: 6.3%

Q: And the weight loss ([4]; 384 mg, intention-to-treat population, 6 months, placebo 2.6%)?
A: 6.3%

Q: And the weight loss ([4]; 384-mg dose, completers)?
A: up to 8.5%
